Columns and labels:
[1] = Storage stability of lyophilized voriconazole compositions, total impurities by HPLC after reconstitution; assay type: physicochemical
Procedure: Lyophilized compositions were formed by dissolving the excipient (SBECD or HPCD) in water and adjusting the pH of the resulting excipient solution. Voriconazole (200 mg) was added to the excipient solution, and the pH of the resulting lyophilization solution was adjusted as necessary. The lyophilization solutions were then filtered and lyophilized to form solid compositions. The lyophilization procedure was adjusted as need for each type of composition; however, the general procedure included reducing the temperature of the lyophilization solutions to −45° C., performing a primary drying at a temperature of from −35 to −15° C. and under a vacuum of from 50-200 milliTorr (mTorr), and performing a secondary drying at a temperature of 40° C. To ensure the lowest initial impurities possible, the solutions for lyophilization were prepared at low temperature, using a nitrogen blanket and purging.
Each composition was sealed in a 5 mL vial with a 13 mm rubber stopper (STELMI 6720GC; American Stelmi Corporation, Princeton, N.J.) and stored at 25° C., 40° C. or 55° C. (all temperatures ±2° C.). After storage for 4 or 8 weeks at 25° C., for 4, 8 or 12 weeks at 40° C., or for 2 or 4 weeks at 55° C., a portion of the vials were reconstituted with 19 mL of water for injection. The reconstituted liquids were analyzed by HPLC to determine the concentrations of voriconazole and of any impurities. For comparison, a portion of each composition was reconstituted at the beginning of the storage time (time=0 weeks) with 19 mL of water for injection, and analyzed by HPLC for voriconazole and impurity concentrations.
Solutions comprising HPCD and voriconazole were prepared as described in Example 1, except that the pH of the solution prior to lyophilization was adjusted to 5.18, 5.5, 6.0, 6.5, or 7.0. The lyophilized compositions were formed and then analyzed for the stability of voriconazole over time at 40° C. or 55° C., as described above with regard to Table 1. Table 2 lists the results of stability analyses of lyophilized compositions containing voriconazole in combination with HPCD, where the compositions had different pH values prior to lyophilization.
(§1) The lyophilized compositions were formed and then analyzed for voriconazole stability over time at 40° C. and 55° C., as described above with regard to Table 1. Table 3 lists the results of stability analyses of lyophilized compositions containing voriconazole in combination with HPCD, where the compositions further included one of the amino acids arginine, aspartic acid or glycine.
as §1, with “3.” for “1.”, “4” for “3”, “lysine, histidine, asparagine, glutamine” for “arginine, aspartic acid”, “threonine.” for “glycine.”
The effects of pH prior to lyophilization were analyzed for the formulations that included lactose. The lyophilized compositions were formed and then analyzed for voriconazole stability over time at 40° C. and 55° C., as described above with regard to Table 3. […]
The pH prior to lyophilization was adjusted to 6.2 with HCl/NaOH. The lyophilized compositions were formed and then analyzed for voriconazole stability over time at 40° C. and 55° C., as described above with regard to Table 3. […]

[2] = aqueous liquid having a pH of 3; cited from earlier work

SMILES: C[C@@H](c1ncncc1F)[C@](O)(Cn1cncn1)c1ccc(F)cc1F [voriconazole, (2R,3S)-2-(2,4-difluorophenyl)-3-(5-fluoro-4-pyrimidinyl)-1-(1H-1,2,4-triazol-1-yl)-2-butanol]
- Total impurities (%) ([1]; lyophilized solid stored at 40 °C, 4 weeks): 0.70%
- Total impurities (%) ([1]; lyophilized solid stored at 40 °C, 8 weeks): 0.34%
- Total impurities (%) ([1]; lyophilized solid stored at 40 °C, 12 weeks): 0.43%
- Total impurities (%) ([1]; lyophilized solid stored at 55 °C, 2 weeks): 0.58%
- Total impurities (%) ([1]; lyophilized solid, time 0 weeks (reconstituted at beginning of storage)): 0.18%
- solubility of voriconazole [2]: 2000 µg/mL

Source: patent publication US20140275122A1, “Voriconazole Formulations” (Fresenius Kabi USA, LLC, priority 2013, published 2014)
